US20100087493A1, “METHOD FOR IMPROVING THE PHARMACOKINETICS OF DRUGS METABOLIZED BY UGT2B10” (priority 2007, published 2010)
Like-named read-outs stand apart in the source and are kept apart here.

Columns and labels:
[1] = molecular target: T1, Recombinant human UGT2B10 (Homo sapiens, UniProt P36537)
T1 sequence (P36537 24-528): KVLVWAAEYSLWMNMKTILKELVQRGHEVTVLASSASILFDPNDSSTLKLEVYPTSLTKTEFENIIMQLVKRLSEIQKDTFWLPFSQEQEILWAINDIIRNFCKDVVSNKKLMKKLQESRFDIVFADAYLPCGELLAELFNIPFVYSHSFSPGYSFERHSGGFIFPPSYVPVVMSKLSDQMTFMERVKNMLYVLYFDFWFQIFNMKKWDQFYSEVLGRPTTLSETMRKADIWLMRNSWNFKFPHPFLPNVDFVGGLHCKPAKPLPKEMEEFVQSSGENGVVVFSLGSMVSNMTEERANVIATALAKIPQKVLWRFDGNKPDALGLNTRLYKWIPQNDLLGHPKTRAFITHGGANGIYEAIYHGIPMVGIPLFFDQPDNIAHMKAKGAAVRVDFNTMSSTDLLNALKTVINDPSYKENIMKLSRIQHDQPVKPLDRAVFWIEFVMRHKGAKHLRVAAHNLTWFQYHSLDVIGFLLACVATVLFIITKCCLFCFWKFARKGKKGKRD
Method: For the purpose of identifying compounds which are directly metabolized by UGT2B10, recombinant cells that express UGT2B10 are prepared according to known methods. For example, recombinant UGT2B10 can be expressed in baculovirus-infected insect cells as described e.g. in Kurkela, M. et al., Journal of Biological Chemistry, 278(6), 3536-3544, 2003. The cells expressing UGT2B10 are suspended in water and homogenized using known procedures. Incubation mixture is prepared by mixing recombinant UGT2B10 homogenate and uridine-5-diphospho-glucuronic acid (UDP-GA) as a glucuronic acid source in a suitable buffer such as phosphate buffer pH 7.4. […] The reaction is terminated by protein precipitation, e.g. by addition of trifluoroacetic acid, or acetonitrile if the formed N-glucuronide is expected to be acid-labile, and cooling. Following centrifugation, the supernatants are analysed for the presence of glucuronidated derivative of the test compound, wherein any suitable analyzing method can be used. High pressure liquid chromatography followed by mass spectrometry is the preferred method. The glucuronides are quantified using authentic glucuronide standards or another suitable methods such as substrate depletion. The enzyme activity of UGT2B10 towards the tested compound is calculated as the amount of glucuronide formed (pmol) divided by incubation time (min) and protein amount (mg/incubation). Example 1 of the present application describes a procedure suitable for identifying compounds that are glucuronidated by UGT2B10.
Recombinant human UGT2B10 were produced in baculovirus-infected insect cells and used as cell homogenate after suspending the cells with water. The glucuronidation rates were determined by incubating the substrates, nicotine and cotinine, with the enzyme UGT2B10 using uridine-5′-diphosphoglucuronic acid (UDP-GA) as a cofactor. The reaction mixtures were incubated at +37° C. for 1-2 hours. The samples were analyzed by high-performance liquid chromatography-mass spectrometry (HPLC-MS). The formed glucuronides were quantified using authentic glucuronide standards. The enzyme activity of UGT2B10 towards the tested compound was calculated as pmol glucuronide formed divided by incubation time (min) and protein amount (mg/incubation).

[2] = molecular target: T1, Recombinant human UGT2B10; experiment: biochemical
Method: (§1) For the purpose of identifying a compound which acts as UGT2B10 modulator, recombinant cells that express UGT2B10 are prepared as described above. The cells expressing UGT2B10 are suspended in water and homogenized using known procedures. The incubation mixture is prepared by mixing recombinant UGT2B10 homogenate and uridine-5-diphosphoglucuronic acid (UDP-GA) as a glucuronic acid source in a suitable buffer such as phosphate buffer pH 7.4. […] The reaction is terminated as described above. Following centrifugation, the supernatants are analyzed and quantified for the presence of glucuronidated derivative of the substrate as described above. The UGT2B10 enzyme activity towards the substrate, in the absence and presence of the modulator, is calculated as the amount of glucuronide formed (pmol) divided by incubation time (min) and protein amount (mg/incubation). The effect of the modulator, inhibition or activation, on the enzyme activity towards the substrate is calculated as % enzyme activity at each modulator concentration compared to the enzyme activity measured in the absence of the modulator. IC50, inhibitor concentration that inhibits the activity by 50%, is used as the measure of the inhibitory effect, and the activation effect is calculated as % increase in enzyme activity. […]
(§2) The samples were analyzed by high-performance liquid chromatography-mass spectrometry (HPLC-MS).

UGT1A4 = UGT1A4 (Homo sapiens, UniProt P22310); experiment: biochemical
Method: as §1, §2

in vitro = details: human, human liver microsomes
Method: The reaction is terminated as described above.
The reaction mixtures were incubated at +37° C. for 1-2 hours. The samples were analyzed by high-performance liquid chromatography-mass spectrometry (HPLC-MS).

UGT2B10 versus UGT1A4 = molecular target: T2, UGT2B10 versus UGT1A4 (Homo sapiens, UniProt P36537); experiment: Km of nicotine glucuronidation, UGT2B10; type: in vitro ADME; details: read-out: Km for UGT2B10 fold less compared to UGT1A4 (selectivity)
T2 construct: made in house; host or cells: baculovirus-infected insect cells (used as cell homogenate)
T2 sequence (P36537 24-528): T1 sequence (P36537 24-528)
Description: (§3) The reaction is terminated as described above. […] 1.1 (SPSS Inc., Chicago, Ill.).
(§4) 1.1 (SPSS Inc., Chicago, Ill.) software.

[3] = substrate: CN1CCCC1c1cccnc1; experiment: Km of nicotine glucuronidation, UGT2B10; type: in vitro ADME, human; details: other: nicotine glucuronidation, 0.002-2 mM, cell homogenate; pH 7.4; 37.0 °C
Description: as §3, §4

[4] = substrate: CN1CCCC1c1cccnc1; experiment: Km of nicotine glucuronidation, UGT1A4; type: in vitro ADME, human; details: other: nicotine glucuronidation, 0.002-2 mM, microsomal membranes; pH 7.4; 37.0 °C
Description: as §3, §4

CN1C(=O)CC[C@H]1c1cccnc1 [Cotinine, cotinine]
substrate for UGT2B10 ([1]; human): substrates for UGT2B10 | UGT2B10 activity ([1]; human, 2 mM): 12.7 pmol/min/mg prot.

Cc1cccc(C(C)c2cnc[nH]2)c1C (stereo in doubt) [Levomedetomidine, (S)-4-[1-(2,3-dimethylphenyl)-ethyl]-3H-imidazole]
IC50 [2]: 13 µM | IC50 (UGT1A4): > 1000 µM

CN1CCCC1c1cccnc1 (stereo not shown) [Nicotine, nicotine]
Km (in vitro): 330 µM | UGT2B10 activity ([1]; in vitro, 2 mM substrate concentration, cell homogenate): 2.9 pmol/min/mg prot. | substrate for UGT2B10 ([1]; in vitro, cell homogenate): substrates for UGT2B10 | selectivity ratio (UGT2B10 versus UGT1A4): 8

B1: Recombinant human UGT2B10 (Homo sapiens) (protein)
chain: T1 sequence (P36537 24-528)
notes: made in house; host or cells: baculovirus-infected insect cells (used as cell homogenate)
Km [3]: 290 µM

B2: recombinant human UGT1A4 (Homo sapiens) (protein)
chain: GKVLVVPTDGSPWLSMREALRELHARGHQAVVLTPEVNMHIKEEKFFTLTAYAVPWTQKEFDRVTLGYTQGFFETEHLLKRYSRSMAIMNNVSLALHRCCVELLHNEALIRHLNATSFDVVLTDPVNLCGAVLAKYLSIPAVFFWRYIPCDLDFKGTQCPNPSSYIPKLLTTNSDHMTFLQRVKNMLYPLALSYICHTFSAPYASLASELFQREVSVVDLVSYASVWLFRGDFVMDYPRPIMPNMVFIGGINCANGKPLSQEFEAYINASGEHGIVVFSLGSMVSEIPEKKAMAIADALGKIPQTVLWRYTGTRPSNLANNTILVKWLPQNDLLGHPMTRAFITHAGSHGVYESICNGVPMVMMPLFGDQMDNAKRMETKGAGVTLNVLEMTSEDLENALKAVINDKSYKENIMRLSSLHKDRPVEPLDLAVFWVEFVMRHKGAPHLRPAAHDLTWYQYHSLDVIGFLLAVVLTVAFITFKCCAYGYRKCLGKKGRVKKAHKSKTH
notes: made in house; host or cells: baculovirus-infected insect cells (microsomal membranes isolated)
Km [4]: 2400 µM
